Counter-ions that a name gives are not always drawn. Like-named read-outs stand apart in the source and are kept apart here.
Legend:
[1] = test system: Adult Bovine Aortic Endothelial (ABAE) cell line; assay: Antiproliferative activity in ABAE cell line, PROTOCOL 1; format: cell-based; conditions: Bos taurus, PROTOCOL 1, 48 hours
Procedure: The antiproliferative activity of the compounds of Formula I in an Adult Bovine Aortic Endothelial (ABAE) cell line and in Human Tumor cell lines is evaluated in three similar assays that measure growth inhibition. The assays are identified as follows: PROTOCOL 1,2,and 3 are described in greater detail hereinbelow. In general, according to PROTOCOLS 1 and 2, the target ABAE and/or Human Tumor cells are exposed to the compounds of Formula I for 48 hours. PROTOCOL 3 exposes ABAE cells to the compounds for 4 days. A detailed description of the protocols is as follows: PROTOCOL 1 Antiproliferative Activity in Human Tumor and Adult Bovine Aortic Endothelial Cell Lines (ABAE) The antiproliferative activity of the compounds of Formula I of the present invention is evaluated in a panel comprised of human tumor cell lines and an adult bovine aortic endothelial cell line (ABAE). The human tumor cell lines are from All cell lines are maintained in log phase in RPMI 1640 media, supplemented with 5% fetal calf serum, penicillin/streptomycin and 2 mM L-glutamine. Cultures are renewed after 20 passages with cells from a fresh stock of batch-frozen early passage cells. Cell lines are routinely checked for mycoplasma contamination (Genprobe). In a laminar flow hood, cells (1-5×10^4) are plated into 96-well microtiter plates in a volume of 0.1 ml/well with a bulk microtiter dispenser (Denley). […] At this concentration, dimethylsulfoxide has no effect on cell growth. Compounds are added using a Tomtec dispenser which simultaneously dispenses from one 96-well plate, containing the drug dilutions, to the plates containing the cells. After two days of continuous drug exposure, 50% cold trichloroacetic acid (TCA) is added to 10% final concentration to fix the cells, and after 60 minutes at 4° C., the TCA is aspirated and the plates are washed 5 times with deionized water using a microtiter plate washer. The number of cells on the plate are quantitated using a protein dye-binding assay (Monks et al., 1991). A 0.4% solution of the dye, sulforhodamine B, in […] is added to the plates, and the plates are washed 5 times with 1% […] using the automatic plate washed. The bound stain is solubilized with 0.1 ml of 10 mM Tris base. The optical densities are read from an automatic spectrophotometric plate reader (Dynatech) directly to a main frame computer (VAX 8600). Positive controls, that include standard chemotherapeutic drugs (i.e., Adriamycin, Cisplatin, etc.), are included in every experiment. Background optical density measurements (complete media-cells, and complete media+drug-cells) are automatically subtracted from the appropriate control and test wells. Mean values and standard errors are determined from duplicate wells. A measure is also made of the optical density at time when the drugs are added. The number of cells after treatment (P), as % of control, is calculated for every concentration of drug, as follows: [formula] wherein: T is optical density measurement for treated cells after 48 hours; C is optical density measurement for untreated cells after 48 hours; Co is optical density measurement for cells at the time of drug addition. IC50 of growth inhibition is calculated from the sets of P values using the RS-1 data package (BBN Software). Table 1 presents the results depicting the antiproliferative activity of the compounds of Formula I against an Adult Bovine Aortic Endothelial cell line (ABAE), as evaluated by PROTOCOL 1 and 2. The results are presented in terms of IC50 and are as follows.

[2] = test system: CACO2; assay: Antiproliferative activity in human tumor cell lines: CACO2 (colon); format: cell-based; conditions: Homo sapiens
Procedure: The antiproliferative activity of the compounds of Formula I in an Adult Bovine Aortic Endothelial (ABAE) cell line and in Human Tumor cell lines is evaluated in three similar assays that measure growth inhibition. The assays are identified as follows:
PROTOCOL 1,2,and 3 are described in greater detail hereinbelow. In general, according to PROTOCOLS 1 and 2, the target ABAE and/or Human Tumor cells are exposed to the compounds of Formula I for 48 hours. PROTOCOL 3 exposes ABAE cells to the compounds for 4 days. A detailed description of the protocols is as follows:
The antiproliferative activity of the compounds of Formula I of the present invention is evaluated in a panel comprised of human tumor cell lines and an adult bovine aortic endothelial cell line (ABAE). The human tumor cell lines are from
All cell lines are maintained in log phase in RPMI 1640 media, supplemented with 5% fetal calf serum, penicillin/streptomycin and 2 mM L-glutamine. Cultures are renewed after 20 passages with cells from a fresh stock of batch-frozen early passage cells. Cell lines are routinely checked for mycoplasma contamination (Genprobe). In a laminar flow hood, cells (1-5×10^4) are plated into 96-well microtiter plates in a volume of 0.1 ml/well with a bulk microtiter dispenser (Denley). […] At this concentration, dimethylsulfoxide has no effect on cell growth. Compounds are added using a Tomtec dispenser which simultaneously dispenses from one 96-well plate, containing the drug dilutions, to the plates containing the cells. After two days of continuous drug exposure, 50% cold trichloroacetic acid (TCA) is added to 10% final concentration to fix the cells, and after 60 minutes at 4° C., the TCA is aspirated and the plates are washed 5 times with deionized water using a microtiter plate washer. The number of cells on the plate are quantitated using a protein dye-binding assay (Monks et al., 1991). A 0.4% solution of the dye, sulforhodamine B, in glacial acetic acid is added to the plates, and the plates are washed 5 times with 1% glacial acetic acid using the automatic plate washed. The bound stain is solubilized with 0.1 ml of 10 mM Tris base. The optical densities are read from an automatic spectrophotometric plate reader (Dynatech) directly to a main frame computer (VAX 8600).
Positive controls, that include standard chemotherapeutic drugs (i.e., Adriamycin, Cisplatin, etc.), are included in every experiment.
Background optical density measurements (complete media-cells, and complete media+drug-cells) are automatically subtracted from the appropriate control and test wells. Mean values and standard errors are determined from duplicate wells. A measure is also made of the optical density at time when the drugs are added. The number of cells after treatment (P), as % of control, is calculated for every concentration of drug, as follows: [formula] wherein: T is optical density measurement for treated cells after 48 hours;
C is optical density measurement for untreated cells after 48 hours;
Co is optical density measurement for cells at the time of drug addition.
IC50 of growth inhibition is calculated from the sets of P values using the RS-1 data package (BBN Software).
The antiproliferative activity of the compounds of Formula I is evaluated in a panel comprised of human tumor cell lines and an adult bovine aortic cell line (ABAE) as listed in PROTOCOL 1. This assay is a modification of PROTOCOL 1. The modifications include:
1) each concentration for each compound is tested in a single well;
2) compounds are tested at 20, 4, 0.8, 0.16 microgram/ml and additionally in some experiments at 100 and 0.32 microgram/ml;
3) samples are pipetted into a 96-well plate for each of the cell lines by a Beckman Biomek 1000 SL robot;
4) after fixing with TCA each well is washed with 0.35 ml distilled water twice, not five times;
5) after staining with sulforhodamine B each well is washed 3 times, not five times; […]

[3] = Caco-2, CACO2 colon tumor, PROTOCOL 1 and PROTOCOL 2, 48 hours, read-out: IC50

| SMILES | IC50 [1] [µg/mL] | IC50 [2, 3] [µg/mL] | IC50 ([2]; Caco-2, 48 h) [µg/mL] |
| --- | --- | --- | --- |
| CN(C)CC(=O)Nc1c(Cl)cc2c(c1O)C(=O)C1=C(O)[C@]3(O)C(=O)C(C(N)=O)=C(O)[C@@H](N(C)C)C3CC1C2 (stereo partly drawn) [Example 3, [4S-(45, 12aα)]-8-Chloro-4-(dimethylamino)-9[[(dimethylamino)acetyl]amino]-1,4,4a,5,5a,6,11,12a-octahydro-3,10,12,12a-tetrahydroxy-1,11-dioxo-2-naphthacenecarboxamide disulfate] | 2.2 | 1.65 | – |
| CCCCNCC(=O)Nc1c(Cl)cc2c(c1O)C(=O)C1=C(O)[C@]3(O)C(=O)C(C(N)=O)=C(O)[C@@H](N(C)C)C3CC1C2 (stereo partly drawn) [Example 4, [4S-(4α, 12aα)]-9-[[(Butylamino)acetyl]amino]-8-chloro-4-(dimethylamino) -1,4,4a,5,5a,6,11,12a-octahydro-3,10,12,12a-tetrahydroxy-1,11-dioxo-2-naphthacenecarboxamide dihydrochloride] | 2.3 | 2.5 | – |
| CCCNCC(=O)Nc1c(Cl)cc2c(c1O)C(=O)C1=C(O)[C@]3(O)C(=O)C(C(N)=O)=C(O)[C@@H](N(C)C)C3CC1C2 (stereo partly drawn) [Example 5, [4S-(4α, 12aα)]-8-Chloro-4-(dimethylamino)-1,4,4a,5,5a, 6,11,12a-octahydro-3,10,12,12a-tetrahydroxy-1,11-dioxo-9-[[(propylamino)acetyl]amino]-2-naphthacenecarboxamide dihydrochloride] | 2 | – | 4 |
| CCCCCNCC(=O)Nc1c(Cl)cc2c(c1O)C(=O)C1=C(O)[C@]3(O)C(=O)C(C(N)=O)=C(O)[C@@H](N(C)C)C3CC1C2 (stereo partly drawn) [Example 6, [4S-(4α, 12aα)]-8-Chloro-4-(dimethylamino)-1,4,4a,5,5a,6,11,12a-octahydro-3,10,12,12a-tetrahydroxy-1,11-dioxo-9-[[(pentylamino)acetyl]amino]-2-naphthacenecarboxamide dihydrochloride] | 0.6 | 0.7 | – |
| CNCC(=O)Nc1c(Cl)cc2c(c1O)C(=O)C1=C(O)[C@]3(O)C(=O)C(C(N)=O)=C(O)[C@@H](N(C)C)C3CC1C2 (stereo partly drawn) [Example 7, [4S-(4α, 12aα)]-8-Chloro-4-(dimethylamino)-1,4,4a,5,5a,6,11,12a-octahydro-3,10,12,12a-tetrahydroxy-1,11-dioxo-9-[[(methylamino)acetyl]amino]-2-naphthacenecarboxamide dihydrochloride] | 3.3 | 3.8 | – |
| CN(C)[C@@H]1C(O)=C(C(N)=O)C(=O)[C@@]2(O)C(O)=C3C(=O)c4c(cc(Cl)c(NC(=O)CNCC5CC5)c4O)CC3CC12 (stereo partly drawn) [Example 8, [4S-(4α,12aα)]-8-Chloro-9-[[(cyclopropylmethylamino)-acetyl]amino]4-(dimethylamino)-1,4,4a,5,5a,6,11,12a-octahydro-3,10,12,12a-tetrahydroxy-1,11-dioxo-2-naphthacenecarboxamide dihydrochloride] | 2 | 2.8 | – |
| CN(C)[C@@H]1C(O)=C(C(N)=O)C(=O)[C@@]2(O)C(O)=C3C(=O)c4c(cc(Cl)c(NC(=O)CN5CCCC5)c4O)CC3CC12 (stereo partly drawn) [Example 9, [7S-(7α,10aα)]-N-[9-(Aminocarbonyl)-3-chloro-7-(dimethylamino)-5,5a,6,6a,7,10,10a,12-octahydro-1,8,10a,11-tetrahydroxy-10,12-dioxo-2-naphthacenyl]-1-pyrrolidineacetamide dihydrochloride] | 2.5 | 1.7 | – |
| CN(C)[C@@H]1C(O)=C(C(N)=O)C(=O)[C@@]2(O)C(O)=C3C(=O)c4c(cc(Cl)c(NC(=O)CN5CCCCC5)c4O)CC3CC12 (stereo partly drawn) [Example 10, 7S-(7α,10aα)]-N-[9-(Aminocarbonyl)-3-chloro-7-(dimethylamino)-5,5a,6,6a,7,10,10a,12-octahydro-1,8,10a,11-tetrahydroxy-10,12-dioxo-2-naphthacenyl]-1-piperidineacetamide dihydrochloride] | 0.7 | 0.65 | – |
| CN(C)c1c(Cl)cc(O)c2c1CC1CC3[C@H](N(C)C)C(O)=C(C(N)=O)C(=O)[C@@]3(O)C(O)=C1C2=O (stereo partly drawn) [Example 11, [4S-(4α,12aα)]-8-Chloro-4,7-bis(dimethylamino)-1,4,4a,5,5a,6,11,12a-octahydro-3,10,12,12a-tetrahydroxy-1,11-dioxo-2-naphthacenecarboxamide sulfate] | 3 | 3.6 | – |
